Laboratory results from patent US10626113B2, “Phosphodiesterase inhibitors and uses thereof” (THE TRUSTEES OF COLUMBIA UNIVERSITY IN THE CITY OF NEW YORK, priority 2012, dated 2020).

How the values were obtained:
[1] = target: PDE5 (Homo sapiens (Human), UniProt O76074); experiment: PDE5 inhibition assay (BPS PDE assay kit, fluorescence polarization); type: biochemical
Procedure: Materials and Methods: PDE5 inhibition was assayed at BPS Bioscience (San Diego, Calif.) using BPS PDE assay kits (BPS Catalog number 60300, enzyme lot 090810). Test compounds were supplied as liquid solutions of 10 mM concentration in DMSO. Sildenafil, used as a standard was dissolved in DMSO. Intermediate dilutions were 10% DMSO in PDE assay buffer and tests at ranges from 0.1 to 100 nM. 0.1 ng of enzyme was used per reaction, and the substrate was 100 nM FAM-cGMP.
(§1) Assay conditions: A series of dilutions of the test compounds were prepared with 10% DMSO in assay buffer and 5 μl of the dilution was added to a 50 μl reaction so that the final concentration of DMSO is 1% in all of reactions. The enzymatic reactions were conducted at room temperature for 60 minutes in a 50 μl mixture containing PDE assay buffer, 100 nM FAM-cAMP or 100 nM FAM-cGMP, a PDE enzyme, and the test compound. After the enzymatic reaction, 100 μl of a binding solution (1:100 dilution of the binding agent with the binding agent diluent) was added to each reaction and the reaction was performed at room temperature for 60 minutes. Fluorescence intensity was measured at an excitation of 485 nm and an emission of 528 nm using a Tecan Infinite M1000 microplate reader.
(§2) Data analysis: PDE activity assays were performed in duplicate at each concentration. Fluorescence intensity is converted to fluorescence polarization using the Tecan Magellan6 software. The fluorescence polarization data were analyzed using the computer software, Graphpad Prism. The fluorescence polarization (FPt) in absence of the compound in each data set was defined as 100% activity. In the absence of PDE and the compound, the value of fluorescent polarization (FPb) in each data set was defined as 0% activity. The percent activity in the presence of the compound was calculated according to the following equation: % activity=(FP−FPb)/(FPt−FPb)×100%, where FP=the fluorescence polarization in the presence of the compound.
The values of % activity versus a series of compound concentrations were then plotted using non-linear regression analysis of Sigmoidal dose-response curve generated with the equation Y=B+(T−B)/1+10^((LogEC50-X)×Hill Slope), where Y=percent activity, B=minimum percent activity, T=maximum percent activity, X=logarithm of compound and Hill Slope=slope factor or Hill coefficient. The IC50 value was determined by the concentration causing a half-maximal percent activity.

[2] = system: PDE6; experiment: PDE6 inhibition assay (fluorescence polarization); type: biochemical; conditions: Table 1
Procedure: as §1, with “The” for “Assay conditions: A series of dilutions of the test compounds were prepared with 10% DMSO in assay buffer and 5 μl of the dilution was added to a 50 μl reaction so that the final concentration of DMSO is 1% in all of reactions. The”
as §2, with “Fluorescence” for “Data analysis: PDE activity assays were performed in duplicate at each concentration. Fluorescence”
The IC50 value was determined by the concentration causing a half-maximal percent activity.

[3] = system: APP/PS1 mice; experiment: Preliminary studies with sildenafil in APP/PS1 mice; type: in vivo; conditions: persist beyond the administration of the inhibitor
Procedure: Slices from transgenic mice treated with the compound had 226.23%±6.72 potentiation compared to 164.12%±10.37 in slices from vehicle-treated transgenic mice (FIG. 3). Residual potentiation recorded during the last 5 minutes of a 2 hr recording following tetanic stimulation of the Schaffer collateral fibers at the CA3-CA1 connection.

IC50 ([1]; Table 1, 100 nM FAM-cGMP)	IC50 [2]	SMILES	IC50 ([1]; Table 3)	effects on synaptic and cognitive abnormalities in APP/PS1 mice [3]
43.8 nM	6620 nM	COc1ccc(CNc2c3c(nc4ccc(C#N)cc24)NCCNC3=O)cc1Cl [E, 6-[(3-chloro-4-methoxybenzyl)amino]-5-oxo-2,3,4,5-tetrahydro-1H-[1,4]diazepino[5,6-b]quinoline-8-carbonitrile]		
5.4 nM		COc1ccc(CNc2c3c(nc4ccc(Br)cc24)CCNC3)cc1Cl [F, 8-bromo-N-(3-chloro-4-methoxybenzyl)-1,2,3,4-tetrahydrobenzo[b][1,6]naphthyridin-10-amine]		
1.55 nM	> 100 nM	COc1ccc(CNc2c3c(nc4ccc(C#N)cc24)CCNC3)cc1Cl [G, 10-((3-chloro-4-methoxybenzyl)amino)-1,2,3,4-tetrahydrobenzo[b][1,6]naphthyridine-8-carbonitrile]		

Continued, molecule first:

SMILES	IC50 ([1]; Table 1, 100 nM FAM-cGMP)	IC50 [2]	IC50 ([1]; Table 3)	effects on synaptic and cognitive abnormalities in APP/PS1 mice [3]
COc1ccc(CNc2c3c(nc4ccc(Br)cc24)CCN(C)C3)cc1Cl [A, 8-bromo-N-(3-chloro-4-methoxybenzyl)-2-methyl-1,2,3,4-tetrahydrobenzo[b][1,6]naphthyridin-10-amine]	21.6 nM			
CCc1cc(C#N)cc2c(NCc3ccc(OC)c(Cl)c3)c3c(nc12)CCN(C)C3 [D, 10-[(3-chloro-4-methoxybenzyl)amino]-6-ethyl-2-methyl-1,2,3,4-tetrahydrobenzo[b][1,6]naphthyridine-8-carbonitrile]	0.07 nM	30 nM		
[2H]C([2H])(Nc1c2c(nc3ccc(C#N)cc13)CCN(C(C)=O)C2)c1ccc(OC)c(Cl)c1 [M]			0.044 nM	
CCCc1nn(C)c2c(=O)[nH]c(-c3cc(S(=O)(=O)N4CCN(C)CC4)ccc3OCC)nc12 [sildenafil]				prolonged beneficial effects
